In PubChem BioAssay AID449735 (Southern Research Specialized Biocontainment Screening …, 2010):
The source made the active and inactive calls.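 Rule for the calls: active = drop in polymyxin IC50 at top compound dose in wild type more than twice that in PhoP-lacking strain; inactive = the rest.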

What was measured:
[1] = polymyxin IC50 shift, WT versus phoP- Salmonella – S. Typhimurium, WT and phoP- strains, round 3, mechanism study for PhoP regulon inhibitor project, late-stage follow-up (AID 449735); conditions: S. Typhimurium WT vs phoP-, polymyxin IC50 shift, OD600, at 150 µM, stronger effect = higher value
[2] = system: S. Typhimurium WT vs phoP-, polymyxin IC50 shift, OD600; assay: as above
[3] = measured here: WT strain IC50 shift
[4] = measured here: phoP- strain IC50 shift

SMILES	polymyxin IC50 shift difference WT - phoP- [1]	polymyxin IC50 shift [1, 3]	polymyxin IC50 shift [1, 4]	IC50 [2] [µM]
O=C(Nc1ccc(I)cc1)N1CCCN(Cc2ccccc2F)C1	-8.3 (inactive)	9.92	18.2	–
O=C(Nc1ccc(Cl)cc1)N1CCCN(Cc2ccc(Br)cc2)C1	-1.52 (inactive)	1.77	3.29	–
O=C(Nc1ccc(Cl)cc1)N1CCCN(Cc2ccccc2Br)C1	-4.93 (inactive)	-2.84	2.09	–
S=C(NCCc1ccc(Cl)cc1)Nc1ccncc1	-0.21 (inactive)	0.05	0.26	–
CCn1cc(C(=O)O)c(=O)c2cc(F)c(N3CCN(C(=S)Nc4ccccc4C)CC3)cc21	–	15.9	3.07	30
CCn1cc(C(=O)O)c(=O)c2cc(F)c(N3CCN(C(=S)Nc4ccccc4OC)CC3)cc21	-0.94 (inactive)	-2.11	-1.17	–
